Patent publication US12409206B2, “Use of cyclosporine analogues for treating fibrosis” (Hepion Pharmaceuticals, Inc., priority 2020, dated 2025)

Legend:
[1] = system: Human Lung Fibroblasts from a Patient with Idiopathic Pulmonary Fibrosis (IPF); test: Procollagen and fibronectin ELISA of spent medium, IPF lung fibroblast culture; format: cell-based; details: 6 days, both in the absence or presence of 0.4 ng/ml TGFβ
Description: (§1) Human Lung Fibroblasts from a Patient with Idiopathic Pulmonary Fibrosis (IPF) (Lonza Bioscience, Cat. #CC-7231) were cultured in 96-well plates. Treatments were applied in triplicate wells (applied 100 ul treatments per well) for 6 days. Cells were near confluence at the start of treatments. […] Spent culture medium collected at the end of the treatments was assayed for procollagen and fibronectin by enzyme-linked immunosorbent assays (ELISA) (Procollagen ELISA antibody pair (ab216064) and fibronectin ELISA antibody pair (ab222262) from Abcam). Procollagen and fibronectin were not detected in medium not applied to cells. Procollagen and fibronectin levels in the medium are represented by means±SD (bars) from 3 replicate wells (open circles).

[2] = system: Human renal mesangial cells; test: Procollagen and fibronectin ELISA of spent medium, renal mesangial cell culture; format: cell-based; details: medium from Day 2-4 of treatment, both in the absence or presence of 0.4 ng/ml TGFβ
Description: as §1, with “Human renal mesangial cells (ScienCell,” for “Human Lung Fibroblasts from a Patient with Idiopathic Pulmonary Fibrosis (IPF) (Lonza Bioscience,”, “Cat. #4200 (SC))” for “Cat. #CC-7231)”, “for 2 days, then re-applied for an additional 2” for “for 6”, “collected from Day 2-4” for “collected at the end”, “of treatment” for “of the treatments”

[3] = system: Human Lung Fibroblasts from a Patient with Idiopathic Pulmonary Fibrosis (IPF); test: Cell viability analysis, IPF lung fibroblast culture; format: cell-based; details: end of treatment (6 days)
Description: as §1

[4] = system: five different types of fibroblasts; test: ECM production (procollagen, fibronectin ELISA), summary over five types of fibroblasts; format: cell-based, Human; details: dose-dependent; at clinically relevant concentrations
From the text: In the present example, five different types of fibroblasts, including (1) lung fibroblasts from a patient with idiopathic pulmonary fibrosis (“IPF”), (2) cardiac fibroblasts, (3) dermal (skin) fibroblasts, (4) renal mesangial cells, and (5) the LX2 hepatic stellate cell line, were used to determine the ability of CRV431 in decreasing production of the ECM molecules, collagen and fibronectin.
The extent of inhibition was similar whether or not the cells were stimulated with the profibrotic agent, transforming growth factor-beta (TGFβ), consistent with direct effects on ECM synthesis.

[5] = system: five different types of fibroblasts; test: Cell viability, summary over five types of fibroblasts; format: cell-based, Human; details: at clinically relevant concentrations
[6] = system: human precision cut liver slices (PCLS); test: PCLS Sirius red tissue fibrosis, Stimulation Protocol (TGFβ+PDGF-BB); format: cell-based; details: compared with other NASH drug candidates
Description: PCLS were obtained from 5 human donors who underwent resection of liver cancer. Replicate slices were collected from healthy margins of the resections and cultured for 4 or 6 days depending on the experimental protocol. In the Nonstimulation Protocol slices were cultured for 6 days and treated for the entire period with DMSO vehicle or 5 μM CRV431. In the Stimulation Protocol slices were rested for 1 day and then administered the cytokines, TGFβ and PDGF-BB, for 3 days to stimulate inflammation and fibrosis. […]
Four types of evaluations were conducted on the PCLS: (a) secretion of inflammation and fibrosis biomarkers into the culture medium, (b) histological staining and quantitation of Sirius red as a measure of tissue fibrosis, (c) gene expression of inflammation and fibrosis biomarkers by RT-PCR, and (d) RNA sequencing (RNA-Seq) of the complete transcriptome. […] ELISAs were used to quantify secretion of monocyte chemoattractant protein (MCP-1), interleukin-6 (IL-6), tissue inhibitor of metalloproteinase-1 (TIMP1), hyaluronic acid, fibronectin, and collagen 1α1. For each donor the mean level of biomarker secretion in each treatment group was expressed as a percentage change relative to DMSO vehicle, the percentages averaged for all donors, and finally the mean daily percentage change calculated from all days of evaluation. […]

HIV = details: preclinical studies; cited from earlier work
liver = details: a number of in vivo models; cited from earlier work

## CC[C@@H]1NC(=O)[C@H]([C@H](O)[C@H](C)CCCCCCNC(C)=O)N(C)C(=O)[C@H](C(C)C)N(C)C(=O)[C@H](CC(C)C)N(C)C(=O)[C@H](CC(C)C)N(C)C(=O)[C@@H](C)NC(=O)[C@H](C)NC(=O)[C@H](CC(C)C)N(C)C(=O)[C@H](C(C)C)NC(=O)[C@H](CC(C)C)N(C)C(=O)[C@@H](C)N(C)C1=O [CRV431]
[1]
  abundance of fibronectin in the medium: dose-dependently decreased
  abundance of procollagen in the medium: dose-dependently decreased
[2]
  abundance of fibronectin in the medium: dose-dependently decreased
  abundance of procollagen in the medium: dose-dependently decreased
[3]
  cell viability: none of the CRV431 treatments affected cell viability
[4]
  decrease of ECM production: up to 55%
[5]
  cell viability: without causing any reduction in cell viability
[6]
  preventing TGFβ+PDGF-BB-induced tissue fibrosis: most effective of five NASH drug candidates
HIV
  anti-viral activity: shows anti-viral activity
liver
  anti-fibrotic activity in the liver: anti-fibrotic activity
